These results are taken from ChEMBL document CHEMBL4219159, “A genetically selected cyclic peptide inhibitor of BCL6 homodimerization” (Bioorg Med Chem, 2018).

Assay [1] deals with T1, B-cell lymphoma 6 protein (Homo sapiens, UniProt P41182). The assay can be described thus: Binding affinity to recombinant N-terminal GST-tagged/RED-NHS labelled wild-type BCL6 BTB domain (5 to 129 residues) (unknown origin) expressed in Escherichia coli Rosetta BL21 (DE3) at 1 mM incubated for 30 mins under dark condition in by single-point microscale thermophoresis method. (In general: In MST a laser heats a spot of the sample, and binding alters the fluorescence response.)

The target of assay [2] is T1, B-cell lymphoma 6 protein. Nature of the assay: Binding affinity to recombinant N-terminal GST-tagged/RED-NHS labelled wild-type BCL6 BTB domain (5 to 129 residues) (unknown origin) expressed in Escherichia coli Rosetta BL21 (DE3) incubated for 30 mins under dark condition by microscale thermophoresis method. To be noted: read-out: Kd(app).
For assay [3], the target named is B-cell lymphoma 6 protein (Homo sapiens, UniProt P41182, C67R/C84N/C8Q). The assay can be described thus: Binding affinity to recombinant RED-NHS labelled BCL6 BTB domain (unknown origin) C8Q/C67R/C84N triple mutant expressed in Escherichia coli Rosetta BL21 (DE3) incubated for 30 mins under dark condition by microscale thermophoresis method. The conditions noted are these: read-out: Kd(app).

Assay [4] has as its system B-cell lymphoma 6 protein (Homo sapiens), P41182 [C8Q,C67R,C84N]. The assay can be described thus: Stabilization of recombinant BCL6 BTB domain (unknown origin) C8Q/C67R/C84N triple mutant expressed in Escherichia coli Rosetta BL21 (DE3) assessed as change in melting temperature measured every 30 secs by SYPRO orange dye based thermal shift assay.
Assay [5] shares this test system. The assay can be described thus: Inhibition of recombinant BCL6 C8Q/C67R/C84N triple mutant BTB domain dimerization (unknown origin) expressed in Escherichia coli Rosetta BL21 (DE3) at 500 uM by size exclusion chromatographic method. In general terms: Size exclusion chromatography separates by hydrodynamic size, large species first.
Assay [6] deals with T1, B-cell lymphoma 6 protein. The assay can be described thus: Binding affinity to recombinant N-terminal GST-tagged/RED-NHS labelled wild-type BCL6 BTB domain (5 to 129 residues) (unknown origin) expressed in Escherichia coli Rosetta BL21 (DE3) incubated for 30 mins under dark condition in presence of DTT by microscale thermophoresis method.
Assay [7] relates to B-cell lymphoma 6 protein (Homo sapiens), P41182 [C8Q,C67R,C84N]. The assay can be described thus: Binding affinity to recombinant RED-NHS labelled BCL6 BTB domain (unknown origin) C8Q/C67R/C84N triple mutant expressed in Escherichia coli Rosetta BL21 (DE3) incubated for 30 mins under dark condition in presence of DTT by microscale thermophoresis method.
Assay [8] deals with T1, B-cell lymphoma 6 protein. The assay can be described thus: Stabilization of recombinant N-terminal GST-tagged wild-type BCL6 BTB domain (5 to 129 residues) (unknown origin) expressed in Escherichia coli Rosetta BL21 (DE3) assessed as change in melting temperature measured every 30 secs by SYPRO orange dye based thermal shift assay.
For assay [9], the system named is B-cell lymphoma 6 protein (Homo sapiens), P41182 [C8Q,C67R,C84N]. The assay can be described thus: Binding affinity to recombinant RED-NHS labelled BCL6 BTB domain (unknown origin) C8Q/C67R/C84N triple mutant expressed in Escherichia coli Rosetta BL21 (DE3) assessed as decrease in SMRT2 peptide binding incubated for 30 mins under dark condition by microscale thermophoresis method relative to control.

Molecules are shown by their SMILES. Calls of active or inactive are those of the source. The calls are words filed in the database; no cut-off is given here. Where a SMILES comes first, the peptide text is derived from it.

As for `CC[C@@H](C)[C@@H]1NC(=O)[C@H](CS)NC(=O)[C@H](C)NC(=O)[C@H](CS)NC(=O)[C@H](Cc2ccc(O)cc2)NC(=O)[C@H](Cc2ccc(O)cc2)NC1=O`, the result in assay [1] was Active.
Same read-out and setting: the value for `CC[C@@H](C)[C@@H]1NC(=O)[C@H](CS)NC(=O)[C@H](C(C)C)NC(=O)[C@H](C)NC(=O)[C@H](Cc2ccc(O)cc2)NC(=O)[C@H](Cc2ccc(O)cc2)NC1=O` was “inactive”; that for `CC[C@@H](C)[C@@H]1NC(=O)[C@H](C)NC(=O)[C@H](C(C)C)NC(=O)[C@H](CS)NC(=O)[C@H](Cc2ccc(O)cc2)NC(=O)[C@H](Cc2ccc(O)cc2)NC1=O` was “inactive”; that for `CC(C)[C@@H]1NC(=O)[C@H](CS)NC(=O)[C@H](Cc2ccc(O)cc2)NC(=O)[C@H](Cc2ccc(O)cc2)NC(=O)[C@H](C)NC(=O)[C@H](CS)NC1=O` (cyclo(AYYCVC)) was “Active”.
Still for that read-out and setting: the result for `CC[C@@H](C)[C@@H]1NC(=O)[C@H](CS)NC(=O)[C@H](C(C)C)NC(=O)[C@H](CS)NC(=O)[C@H](Cc2ccc(O)cc2)NC(=O)[C@H](C)NC1=O` reads “Active”.
On the same count and under the same terms, the value for `CC[C@@H](C)[C@@H]1NC(=O)[C@H](CS)NC(=O)[C@H](C(C)C)NC(=O)[C@H](CS)NC(=O)[C@H](C)NC(=O)[C@H](Cc2ccc(O)cc2)NC1=O` was “inactive”.
As to `CC[C@@H](C)[C@@H]1NC(=O)[C@H](CS)NC(=O)[C@H](C(C)C)NC(=O)[C@H](CS)NC(=O)[C@H](Cc2ccc(O)cc2)NC(=O)[C@H](Cc2ccc(O)cc2)NC1=O`, the figures for the Kd in assay [2] and in assay [3] were 142 µM and 50 µM, respectively. Moreover, the Activity entry in [4] and in assay [8] was “Dose-dependent effect” throughout. In assay [5], the inhibition result is “Active”. For the same compound, the outcome in assay [6] and in assay [7] was inactive. For the same compound, the result in assay [1] was Active. The fold change (FC) in assay [9] turned out to be 3.
